Results: the supplement of paper PMC5908809

How the values were obtained:
Assay in all cases: relative IC50 (inflection point of fitted viability curve, relative to fitted max inhibition); higher = less sensitive
Conditions in all cases: 72 h
[1] = system: normal primary NK cells, pool 1 (3 donors) (IL-2 2.5 ng/mL)
Procedure: (§1)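 Drug sensitivity and resistance testing: 5 concentrations over a 10,000-fold range, 72 h at 37 °C, viability by CellTiter-Glo normalised to DMSO and benzethonium chloride controls. IC50 is the inflection point of a logistic fit (min fixed at 0, max fitted), so it is relative to the fitted maximal inhibition. Kept only where fitted max inhibition is at least 50%.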

DERL-7 (IL-2 2.5 ng/mL) = system: DERL-7 (IL-2 2.5 ng/mL)
Procedure: as §1

NK-92 (IL-2 2.5 ng/mL) = system: NK-92 (IL-2 2.5 ng/mL)
Procedure: as §1

KAI3 (IL-2 2.5 ng/mL) = system: KAI3 (IL-2 2.5 ng/mL)
Procedure: as §1

YT (IL-2 2.5 ng/mL) = system: YT (IL-2 2.5 ng/mL)
Procedure: as §1

NK-YS (IL-2 2.5 ng/mL) = system: NK-YS (IL-2 2.5 ng/mL)
Procedure: as §1

[2] = system: normal primary NK cells, pool 1 (3 donors), resting (IL-2 0 ng/mL)
Procedure: as §1

[3] = system: normal primary NK cells, pool 3 (3 donors) (IL-2 2.5 ng/mL)
Procedure: as §1

IMC-1 (IL-2 20 ng/mL) = system: IMC-1 (IL-2 20 ng/mL)
Procedure: as §1

[4] = system: normal primary NK cells, pool 2 (3 donors) (IL-2 2.5 ng/mL)
Procedure: as §1

SNK-6 (IL-2 2.5 ng/mL) = system: SNK-6 (IL-2 2.5 ng/mL)
Procedure: as §1

NKL (IL-2 2.5 ng/mL) = system: NKL (IL-2 2.5 ng/mL)
Procedure: as §1

KHYG-1 (IL-2 2.5 ng/mL) = system: KHYG-1 (IL-2 2.5 ng/mL)
Procedure: as §1

In the case of Cc1cc(OCc2nnc(SC3CCCC3)n2-c2cccnc2)ccc1-c1ccc(S(C)(=O)=O)cc1 [NMS-873], the “relative IC50” value [1] is reported as 909 nM, the “relative IC50” value (DERL-7 (IL-2 2.5 ng/mL)) is reported as 1410 nM and the “relative IC50” value (NK-92 (IL-2 2.5 ng/mL)) is reported as 506 nM. For the same compound, the “relative IC50” value (KAI3 (IL-2 2.5 ng/mL)) was 1270 nM, the “relative IC50” value (YT (IL-2 2.5 ng/mL)) was 48.7 nM and the “relative IC50” value (NK-YS (IL-2 2.5 ng/mL)) was 114 nM. For the same compound, the “relative IC50” value [2] was 455 nM, the “relative IC50” value [3] was 1680 nM and the “relative IC50” value (IMC-1 (IL-2 20 ng/mL)) was 40.2 nM. For the same compound, the “relative IC50” value [4] was 767 nM, the “relative IC50” value (SNK-6 (IL-2 2.5 ng/mL)) was 1440 nM and the “relative IC50” value (NKL (IL-2 2.5 ng/mL)) was 488 nM. For the same compound, the “relative IC50” value (KHYG-1 (IL-2 2.5 ng/mL)) was 250 nM.
C[C@@H](Oc1ccc2[nH]nc(/C=C/c3cnn(CCO)c3)c2c1)c1c(Cl)cncc1Cl was tested, and the “relative IC50” value [1] was 47.9 nM, the “relative IC50” value (DERL-7 (IL-2 2.5 ng/mL)) was 91.8 nM and the “relative IC50” value (NK-92 (IL-2 2.5 ng/mL)) was 50.1 nM. For the same compound, the “relative IC50” value (KAI3 (IL-2 2.5 ng/mL)) was 20.9 nM, the “relative IC50” value (YT (IL-2 2.5 ng/mL)) was 224 nM and the “relative IC50” value (NK-YS (IL-2 2.5 ng/mL)) was 59.2 nM. The “relative IC50” value [3] was 30.1 nM, the “relative IC50” value (IMC-1 (IL-2 20 ng/mL)) was 165 nM and the “relative IC50” value [4] was 15.6 nM. For the same compound, the “relative IC50” value (SNK-6 (IL-2 2.5 ng/mL)) was 15.7 nM, the “relative IC50” value (NKL (IL-2 2.5 ng/mL)) was 11.9 nM and the “relative IC50” value (KHYG-1 (IL-2 2.5 ng/mL)) was 16.1 nM.
With CC(=O)[C@]1(O)Cc2c(O)c3c(c(O)c2[C@@H](O[C@H]2C[C@H](N)[C@H](O)[C@H](C)O2)C1)C(=O)c1ccccc1C3=O [Idarubicin] the “relative IC50” value [1] was 17.3 nM, the “relative IC50” value (DERL-7 (IL-2 2.5 ng/mL)) was 6.26 nM and the “relative IC50” value (NK-92 (IL-2 2.5 ng/mL)) was 5.78 nM. For the same compound, the “relative IC50” value (KAI3 (IL-2 2.5 ng/mL)) was 3.54 nM, the “relative IC50” value (YT (IL-2 2.5 ng/mL)) was 34 nM and the “relative IC50” value (NK-YS (IL-2 2.5 ng/mL)) was 6.58 nM. The “relative IC50” value [2] was 3.38 nM, the “relative IC50” value [3] was 10.9 nM and the “relative IC50” value (IMC-1 (IL-2 20 ng/mL)) was 7.71 nM. The “relative IC50” value [4] was 9.51 nM, the “relative IC50” value (SNK-6 (IL-2 2.5 ng/mL)) was 5.03 nM and the “relative IC50” value (NKL (IL-2 2.5 ng/mL)) was 1.74 nM. For the same compound, the “relative IC50” value (KHYG-1 (IL-2 2.5 ng/mL)) was 6.52 nM.
For CNC(=O)c1nn(C)c2c1C(C)(C)Cc1cnc(Nc3ccc(N4CCN(C)CC4)cc3)nc1-2 [Milciclib], the “relative IC50” value [1] was 1100 nM, the “relative IC50” value (DERL-7 (IL-2 2.5 ng/mL)) was 634 nM and the “relative IC50” value (NK-92 (IL-2 2.5 ng/mL)) was 1190 nM. For the same compound, the “relative IC50” value (KAI3 (IL-2 2.5 ng/mL)) was 1230 nM, the “relative IC50” value (YT (IL-2 2.5 ng/mL)) was 1680 nM and the “relative IC50” value (NK-YS (IL-2 2.5 ng/mL)) was 1170 nM. For the same compound, the “relative IC50” value [2] was 449 nM, the “relative IC50” value [3] was 1470 nM and the “relative IC50” value (IMC-1 (IL-2 20 ng/mL)) was 3420 nM. For the same compound, the “relative IC50” value [4] was 775 nM, the “relative IC50” value (SNK-6 (IL-2 2.5 ng/mL)) was 1780 nM and the “relative IC50” value (NKL (IL-2 2.5 ng/mL)) was 1220 nM. The “relative IC50” value (KHYG-1 (IL-2 2.5 ng/mL)) was 278 nM.
For CN(C)Cc1ccc(S(=O)(=O)n2ccc(/C=C/C(=O)NO)c2)cc1 [Resminostat], the “relative IC50” value [1] was 667 nM, the “relative IC50” value (DERL-7 (IL-2 2.5 ng/mL)) was 1040 nM and the “relative IC50” value (NK-92 (IL-2 2.5 ng/mL)) was 629 nM. The “relative IC50” value (KAI3 (IL-2 2.5 ng/mL)) was 304 nM, the “relative IC50” value (YT (IL-2 2.5 ng/mL)) was 1460 nM and the “relative IC50” value (NK-YS (IL-2 2.5 ng/mL)) was 1300 nM. The “relative IC50” value [2] was 268 nM, the “relative IC50” value [3] was 1720 nM and the “relative IC50” value (IMC-1 (IL-2 20 ng/mL)) was 3480 nM. The “relative IC50” value [4] was 1160 nM, the “relative IC50” value (SNK-6 (IL-2 2.5 ng/mL)) was 829 nM and the “relative IC50” value (NKL (IL-2 2.5 ng/mL)) was 258 nM. The “relative IC50” value (KHYG-1 (IL-2 2.5 ng/mL)) was 731 nM.
COc1cc2c(cc1-c1c(C)noc1C)ncc1[nH]c(=O)n([C@H](C)c3ccccn3)c12 [I-BET151] was tested, and the “relative IC50” value [1] was 1040 nM, the “relative IC50” value (DERL-7 (IL-2 2.5 ng/mL)) was 306 nM and the “relative IC50” value (KAI3 (IL-2 2.5 ng/mL)) was 848 nM. For the same compound, the “relative IC50” value (YT (IL-2 2.5 ng/mL)) was 966 nM, the “relative IC50” value (NK-YS (IL-2 2.5 ng/mL)) was 707 nM and the “relative IC50” value [2] was 1010 nM. For the same compound, the “relative IC50” value [3] was 1850 nM, the “relative IC50” value (IMC-1 (IL-2 20 ng/mL)) was 2040 nM and the “relative IC50” value [4] was 1240 nM. For the same compound, the “relative IC50” value (SNK-6 (IL-2 2.5 ng/mL)) was 149 nM, the “relative IC50” value (NKL (IL-2 2.5 ng/mL)) was 375 nM and the “relative IC50” value (KHYG-1 (IL-2 2.5 ng/mL)) was 606 nM.
In the case of COc1ccc(-c2cc3c(C)nc(N)nc3n([C@H]3CC[C@H](OCCO)CC3)c2=O)cn1, the “relative IC50” value [1] is reported as 939 nM, the “relative IC50” value (DERL-7 (IL-2 2.5 ng/mL)) is reported as 41.3 nM and the “relative IC50” value (NK-92 (IL-2 2.5 ng/mL)) is reported as 84.6 nM. The “relative IC50” value (KAI3 (IL-2 2.5 ng/mL)) was 163 nM, the “relative IC50” value (YT (IL-2 2.5 ng/mL)) was 116 nM and the “relative IC50” value (NK-YS (IL-2 2.5 ng/mL)) was 344 nM. The “relative IC50” value [2] was 514 nM, the “relative IC50” value [3] was 1510 nM and the “relative IC50” value (IMC-1 (IL-2 20 ng/mL)) was 4020 nM. The “relative IC50” value [4] was 951 nM, the “relative IC50” value (SNK-6 (IL-2 2.5 ng/mL)) was 1060 nM and the “relative IC50” value (NKL (IL-2 2.5 ng/mL)) was 264 nM. The “relative IC50” value (KHYG-1 (IL-2 2.5 ng/mL)) was 476 nM.
For CO[C@H]1/C=C\C=C(/C)C(=O)NC2=CC(=O)C(NCCN(C)C)=C(C[C@@H](C)C[C@H](OC)[C@H](O)[C@@H](C)/C=C(\C)[C@@H]1OC(N)=O)C2=O [Alvespimycin], the “relative IC50” value [1] was 29.4 nM, the “relative IC50” value (DERL-7 (IL-2 2.5 ng/mL)) was 49.1 nM and the “relative IC50” value (NK-92 (IL-2 2.5 ng/mL)) was 68.8 nM. The “relative IC50” value (KAI3 (IL-2 2.5 ng/mL)) was 44.5 nM, the “relative IC50” value (YT (IL-2 2.5 ng/mL)) was 130 nM and the “relative IC50” value (NK-YS (IL-2 2.5 ng/mL)) was 25.1 nM. For the same compound, the “relative IC50” value [3] was 86.5 nM, the “relative IC50” value (IMC-1 (IL-2 20 ng/mL)) was 192 nM and the “relative IC50” value [4] was 29.5 nM. For the same compound, the “relative IC50” value (SNK-6 (IL-2 2.5 ng/mL)) was 20.5 nM, the “relative IC50” value (NKL (IL-2 2.5 ng/mL)) was 31.9 nM and the “relative IC50” value (KHYG-1 (IL-2 2.5 ng/mL)) was 91.8 nM.
With Cc1ncc(-c2ccnc(Nc3ccc(S(C)(=O)=O)cc3)n2)n1C(C)C [AZD-5438] the “relative IC50” value [1] was 2220 nM, the “relative IC50” value (DERL-7 (IL-2 2.5 ng/mL)) was 1370 nM and the “relative IC50” value (NK-92 (IL-2 2.5 ng/mL)) was 3010 nM. For the same compound, the “relative IC50” value (KAI3 (IL-2 2.5 ng/mL)) was 1150 nM, the “relative IC50” value (YT (IL-2 2.5 ng/mL)) was 1570 nM and the “relative IC50” value (NK-YS (IL-2 2.5 ng/mL)) was 848 nM. For the same compound, the “relative IC50” value [2] was 5260 nM, the “relative IC50” value [3] was 1800 nM and the “relative IC50” value (IMC-1 (IL-2 20 ng/mL)) was 1220 nM. The “relative IC50” value [4] was 1930 nM, the “relative IC50” value (SNK-6 (IL-2 2.5 ng/mL)) was 3300 nM and the “relative IC50” value (NKL (IL-2 2.5 ng/mL)) was 2740 nM. The “relative IC50” value (KHYG-1 (IL-2 2.5 ng/mL)) was 1080 nM.
In the case of Cc1cc(Nc2ncc(Cl)c(Nc3ccccc3S(=O)(=O)C(C)C)n2)c(OC(C)C)cc1C1CCNCC1 [Ceritinib], the “relative IC50” value [1] is reported as 616 nM, the “relative IC50” value (NK-YS (IL-2 2.5 ng/mL)) is reported as over 2500 nM and the “relative IC50” value [2] is reported as 464 nM. The “relative IC50” value (IMC-1 (IL-2 20 ng/mL)) was over 2500 nM and the “relative IC50” value (NKL (IL-2 2.5 ng/mL)) was over 2500 nM.
For COc1ccc(-c2nc(N3CCOCC3)c3sc(CN(C)c4ncc(C(=O)NO)cn4)cc3n2)cn1 [CUDC-907], the “relative IC50” value [1] was 6.42 nM, the “relative IC50” value (DERL-7 (IL-2 2.5 ng/mL)) was 1.6 nM and the “relative IC50” value (NK-92 (IL-2 2.5 ng/mL)) was 2.64 nM. For the same compound, the “relative IC50” value (KAI3 (IL-2 2.5 ng/mL)) was under 1 nM, the “relative IC50” value (YT (IL-2 2.5 ng/mL)) was 14.7 nM and the “relative IC50” value (NK-YS (IL-2 2.5 ng/mL)) was 8.33 nM. For the same compound, the “relative IC50” value [2] was 3.45 nM, the “relative IC50” value [3] was 8.82 nM and the “relative IC50” value (IMC-1 (IL-2 20 ng/mL)) was 13 nM. The “relative IC50” value [4] was 5.81 nM, the “relative IC50” value (SNK-6 (IL-2 2.5 ng/mL)) was 7.89 nM and the “relative IC50” value (NKL (IL-2 2.5 ng/mL)) was under 1 nM. For the same compound, the “relative IC50” value (KHYG-1 (IL-2 2.5 ng/mL)) was 2.32 nM.
